Results on ten molecules are retold here after PubChem BioAssay (NCI).

Each structure is given as a SMILES string. “And” between values parts separate entries of the source, which are not always exact repeats. Equal entries are not always repeated.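 Cultured in 96-well plates, cells were exposed to test compound for 48 hours across five concentrations. The concentration for 50% growth inhibition is given as GI50. TGI: concentration producing complete growth inhibition.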

Some test systems named below: KM12 colon; MALME-3M melanoma; NCI-H23 lung; OVCAR-5 ovarian; SK-MEL-2 melanoma; SK-MEL-28 melanoma; SNB-19 CNS; SR leukemia; U251 CNS; UO-31 renal.
What all share (test): NCI-60 cell line screen, 48 h

For `CCN(CC)CCNC(=O)c1c(C)[nH]c(/C=C2\C(=O)Nc3ccc(F)cc32)c1C`, the GI50 was 0.11 µM and 0.1 µM and 0.0322 µM with KM12 colon; 1.87 µM and 2.18 µM and 1.16 µM with MALME-3M melanoma; 3.88 µM and 2.6 µM and 2.39 µM in the assay with NCI-H23 lung; 4.1 µM and 2.35 µM and 3.57 µM in the assay on OVCAR-5 ovarian; 1.38 µM and 2.1 µM and 4.56 µM in the assay on SK-MEL-2 melanoma; 2.47 µM and 3 µM and 1.57 µM in the assay with SK-MEL-28 melanoma. Besides, the GI50 with SNB-19 CNS is > 10 µM and 5.36 µM and 11.4 µM; in the assay with SR leukemia, 1.97 µM and 4.56 µM and 1.27 µM; with U251 CNS, 5.33 µM and 3.06 µM and 2.25 µM; in the assay with UO-31 renal, 0.629 µM and 1.26 µM and 1.29 µM. The TGI in the assay on KM12 colon was > 10 µM and 3.03 µM and 5.54 µM; with MALME-3M melanoma, 6.55 µM and 5.1 µM and 2.91 µM; with NCI-H23 lung, > 10 µM and 9.21 µM and 14.5 µM; with OVCAR-5 ovarian, > 10 µM and 8.72 µM and 18.1 µM; in the assay on SK-MEL-2 melanoma it was 9.46 µM and 4.82 µM and 13.2 µM; with SK-MEL-28 melanoma it was > 10 µM and 5.89 µM and 3.31 µM. The TGI with SNB-19 CNS was > 10 µM and 16.3 µM and 25.6 µM; in the assay on SR leukemia, 5.11 µM and 14.2 µM and 3.74 µM; with U251 CNS, > 10 µM and 6.34 µM and 7.54 µM; with UO-31 renal, > 10 µM and 4.59 µM and 8.07 µM.

For `Cc1nc(Nc2n[nH]c3c2CN(C(=O)N[C@H](CN(C)C)c2ccccc2)C3(C)C)c2sccc2n1`, the GI50 is 0.0493 µM and 0.0739 µM with KM12 colon; 0.0473 µM and < 0.01 µM with MALME-3M melanoma; 0.0136 µM and 0.0207 µM with NCI-H23 lung; 0.0686 µM and 0.322 µM with OVCAR-5 ovarian; 0.0211 µM and 0.0149 µM with SK-MEL-2 melanoma; 0.013 µM and < 0.01 µM in the assay on SK-MEL-28 melanoma. Besides, the GI50 in the assay on SNB-19 CNS is 0.0575 µM and 0.0546 µM; in the assay on SR leukemia it was 0.00432 µM and < 0.01 µM; with U251 CNS, 0.0242 µM and 0.0325 µM; in the assay with UO-31 renal, 0.229 µM and 1.28 µM. Further, the TGI is > 4.68 µM and 4.45 µM with KM12 colon; 0.497 µM and 2.44 µM in the assay with MALME-3M melanoma; 2.8 µM and 4.42 µM with NCI-H23 lung; > 8.88 µM and 25.2 µM with OVCAR-5 ovarian; 1.01 µM and 2.8 µM in the assay with SK-MEL-2 melanoma; 1.12 µM and 4.31 µM with SK-MEL-28 melanoma. In addition, the TGI in the assay on SNB-19 CNS is > 6.54 µM and 3.75 µM; in the assay on U251 CNS it was > 7.15 µM and 8.11 µM; in the assay with UO-31 renal it was > 4.67 µM and 42.3 µM.

Turning to `O=C/C(=C(/Cl)c1ccc(O)cc1)c1ccccc1`, the TGI was more than 100 µM in the assay with KM12 colon; 70.4 µM with MALME-3M melanoma; 55.1 µM with NCI-H23 lung; more than 100 µM with OVCAR-5 ovarian; 81.6 µM in the assay with SK-MEL-2 melanoma; 41.9 µM with SK-MEL-28 melanoma. In addition, the TGI with SNB-19 CNS is more than 100 µM; in the assay with SR leukemia, more than 100 µM; in the assay on U251 CNS it was more than 56.5 µM; with UO-31 renal, 61.8 µM.

With `O=C(/C=C/c1ccccc1)CC(c1ccccc1)N1CCOCC1` (stereo not drawn), the GI50 is 1.99 µM in the assay on KM12 colon; 4.4 µM in the assay on MALME-3M melanoma; 2 µM in the assay with NCI-H23 lung; 9.79 µM in the assay with OVCAR-5 ovarian; 26.5 µM in the assay on SK-MEL-2 melanoma; 13.8 µM in the assay with SK-MEL-28 melanoma. Further, the GI50 was 9.8 µM in the assay on SNB-19 CNS, 2.71 µM in the assay on SR leukemia, 2.44 µM with U251 CNS and 1.58 µM in the assay with UO-31 renal. The TGI came to 3.72 µM in the assay on KM12 colon; 19.9 µM in the assay on MALME-3M melanoma; 4.4 µM in the assay with NCI-H23 lung; 22.1 µM in the assay with OVCAR-5 ovarian; 66.9 µM with SK-MEL-2 melanoma; 30 µM with SK-MEL-28 melanoma. Besides, the TGI in the assay on SNB-19 CNS was 21.9 µM; in the assay on SR leukemia, 8.92 µM; in the assay on U251 CNS, 5.21 µM; with UO-31 renal, 3.24 µM.

`COc1ccc(-c2nnc(N3CCN(C(=O)CN4CCN(c5ccc(OC)cc5)CC4)CC3)nc2-c2ccc(OC)cc2)cc1`: the GI50 was 2.93 µM in the assay on KM12 colon; 3.17 µM in the assay on MALME-3M melanoma; 9.73 µM in the assay with NCI-H23 lung; 27.6 µM in the assay with OVCAR-5 ovarian; 10.2 µM with SK-MEL-2 melanoma; 13.4 µM in the assay with SK-MEL-28 melanoma. Also, the GI50 in the assay with SNB-19 CNS was 20.7 µM; in the assay with SR leukemia it was 2.1 µM; in the assay with U251 CNS, 5.31 µM; in the assay on UO-31 renal, 12.5 µM. In addition, the TGI is 8.4 µM in the assay on KM12 colon; 23.1 µM with MALME-3M melanoma; 33.4 µM in the assay on NCI-H23 lung; 53.1 µM in the assay on OVCAR-5 ovarian; 44.1 µM in the assay with SK-MEL-2 melanoma; 34.6 µM in the assay with SK-MEL-28 melanoma. Moreover, the TGI in the assay on SNB-19 CNS came to 46.4 µM; with SR leukemia it was 4.04 µM; in the assay on U251 CNS, 66.1 µM; in the assay on UO-31 renal, 39.7 µM.

Take `C[C@H](Cn1ncnn1)Nc1ncc2cc(Oc3ccc(F)cc3F)c(=O)n(C)c2n1`: the GI50 with KM12 colon, in the assay with MALME-3M melanoma, in the assay on NCI-H23 lung, in the assay with OVCAR-5 ovarian, with SK-MEL-2 melanoma and in the assay on SK-MEL-28 melanoma was more than 25 µM each time. The GI50 in the assay on SNB-19 CNS, in the assay with SR leukemia, in the assay with U251 CNS and in the assay on UO-31 renal was more than 25 µM each time. For the same molecule, the TGI with KM12 colon, in the assay with MALME-3M melanoma, with NCI-H23 lung, in the assay on OVCAR-5 ovarian, in the assay on SK-MEL-2 melanoma and in the assay with SK-MEL-28 melanoma was more than 25 µM throughout. The TGI in the assay on SNB-19 CNS, in the assay on SR leukemia, in the assay on U251 CNS and in the assay with UO-31 renal was more than 25 µM each time.

As for `CN(C)Cc1c[nH]c2c(NCCN)c3c(c(NCCN)c12)C(=O)c1ccccc1C3=O`, the GI50 was 1.59 µM in the assay with KM12 colon; 3.99 µM with MALME-3M melanoma; 2.22 µM with NCI-H23 lung; 5.68 µM with OVCAR-5 ovarian; 2.41 µM with SK-MEL-2 melanoma; 8.8 µM with SK-MEL-28 melanoma. For the same molecule, the results for the GI50 with SNB-19 CNS, in the assay on U251 CNS and in the assay on UO-31 renal were 6.52 µM, 0.394 µM and 8.58 µM, respectively. Moreover, the TGI with KM12 colon was 7.11 µM; in the assay on MALME-3M melanoma it was 18.7 µM; in the assay on NCI-H23 lung it was 8.99 µM; with OVCAR-5 ovarian, 25.1 µM; in the assay on SK-MEL-2 melanoma it was 8.27 µM; in the assay on SK-MEL-28 melanoma it was 23.3 µM. Moreover, the TGI was 23 µM in the assay on SNB-19 CNS, more than 100 µM with SR leukemia, 1.87 µM in the assay on U251 CNS and 26 µM in the assay with UO-31 renal.

As to `C=CCSc1nc2ccccc2c(=O)n1Cc1ccco1`, the TGI with KM12 colon, in the assay on MALME-3M melanoma, in the assay with NCI-H23 lung, in the assay with OVCAR-5 ovarian, with SK-MEL-2 melanoma and in the assay on SK-MEL-28 melanoma was more than 100 µM each time. Further, the TGI in the assay on SNB-19 CNS, in the assay on SR leukemia, with U251 CNS and with UO-31 renal was more than 100 µM each time.

Take `OB1OCc2cc(/C=C/c3cccc(C(F)(F)F)c3)ccc21`: the GI50 in the assay with KM12 colon is 2.26 µM; with MALME-3M melanoma, 7.65 µM; in the assay on NCI-H23 lung it was 0.625 µM; in the assay with OVCAR-5 ovarian it was 5.15 µM; with SK-MEL-2 melanoma, 46.1 µM; in the assay with SK-MEL-28 melanoma, 18.8 µM. Besides, the GI50 is 0.765 µM with SNB-19 CNS, 0.318 µM in the assay with SR leukemia, 0.64 µM in the assay on U251 CNS and 0.551 µM in the assay with UO-31 renal. In addition, the TGI was more than 100 µM with KM12 colon; 54.3 µM in the assay with MALME-3M melanoma; 80.6 µM in the assay with NCI-H23 lung; more than 100 µM in the assay on OVCAR-5 ovarian; more than 100 µM with SK-MEL-2 melanoma; more than 100 µM in the assay on SK-MEL-28 melanoma. In addition, the TGI in the assay with SNB-19 CNS is 48.7 µM; in the assay on SR leukemia, 11.6 µM; in the assay on U251 CNS, 17.3 µM; with UO-31 renal, 20.3 µM.

On to `Cc1cc(Nc2nc(SCc3ccc(C(=O)Nc4ccc(F)cc4N)cc3)nn3cccc23)n[nH]1`, for which the GI50 is 0.284 µM in the assay with KM12 colon; 1.83 µM in the assay on MALME-3M melanoma; 0.603 µM with NCI-H23 lung; 0.657 µM in the assay on OVCAR-5 ovarian; 0.617 µM in the assay on SK-MEL-2 melanoma; 2.83 µM in the assay on SK-MEL-28 melanoma. Further, the GI50 with SNB-19 CNS was 0.536 µM; in the assay with SR leukemia, 0.068 µM; with U251 CNS it was 0.343 µM; in the assay on UO-31 renal, 1.33 µM. For the same molecule, the TGI in the assay on KM12 colon was 10.3 µM; in the assay with MALME-3M melanoma, 25.7 µM; in the assay on NCI-H23 lung it was 47.4 µM; in the assay with OVCAR-5 ovarian it was more than 100 µM; in the assay on SK-MEL-2 melanoma, 6.01 µM; in the assay on SK-MEL-28 melanoma it was 51.8 µM. Also, the TGI in the assay with SNB-19 CNS is more than 100 µM; in the assay with SR leukemia, 63.1 µM; in the assay on U251 CNS it was more than 100 µM; with UO-31 renal it was 11 µM.
